Laboratory results: ChEMBL document CHEMBL2413023, “Antiparasitic hybrids of Cinchona alkaloids and bile acids” (Eur J Med Chem, 2013)
In brackets after ≈: the same amount, converted by molar mass.

How the values were obtained:
[1] = Selectivity index, ratio of IC50 for human WI38 cells to IC50 for erythrocytic stage of chloroquine-sensitive Plasmodium falciparum 3D7; assay type: toxicity, cell-based, WI-38; details: read-out: Ratio IC50
[2] = Selectivity index, ratio of IC50 for human WI38 cells to IC50 for Leishmania mexicana mexicana MHOM/BZ/84/BEL46 promastigotes; assay type: toxicity, cell-based, WI-38; details: read-out: Ratio IC50
WI-38 = assay: Cytotoxicity against human WI38 cells by MTT assay; assay type: cell-based
Plasmodium falciparum = assay: Antiplasmodial activity against erythrocytic stage of chloroquine-sensitive Plasmodium falciparum 3D7 assessed as parasite LDH activity by three-fold serial dilution method; assay type: functional, organism-based
in vitro = details: human, WI38 cells
Description: Selectivity index, ratio of IC50 for human WI38 cells to IC50 for Trypanosoma brucei brucei Lister 427 bloodstream form

[3] = test system: Leishmania mexicana mexicana; assay: Antileishmanial activity against Leishmania mexicana mexicana MHOM/BZ/84/BEL46 promastigotes assessed as parasite LDH activity by three-fold serial dilution method; assay type: functional, organism-based
[4] = test system: Trypanosoma brucei brucei; assay: Antitrypanosomal activity against Trypanosoma brucei brucei Lister 427 bloodstream form assessed as parasite LDH activity by three-fold serial dilution method; assay type: functional, organism-based

SMILES | selectivity ratio [1] | selectivity ratio [2] | IC50 (WI-38) | IC50 (Plasmodium falciparum) | selectivity ratio (in vitro) | IC50 [3] | IC50 [4]
C=C[C@H]1CN2CC[C@H]1C[C@H]2[C@H](O)c1cc(CC[C@@H](C)[C@H]2CC[C@H]3[C@@H]4CC[C@@H]5C[C@H](O)CC[C@]5(C)[C@H]4CC[C@]23C)nc2ccccc12 | 8.7 | 0.72 | 9.28 µg/mL (≈ 14.8 µM) | 1.07 µg/mL (≈ 1.71 µM) | 4.3 | 12.8 µg/mL (≈ 20.5 µM) | 2.16 µg/mL (≈ 3.46 µM)
C=C[C@H]1CN2CC[C@H]1C[C@H]2[C@H](O)c1cc(CC[C@@H](C)[C@H]2CC[C@H]3[C@@H]4[C@H](OC(C)=O)C[C@@H]5C[C@H](OC(C)=O)CC[C@]5(C)[C@H]4CC[C@]23C)nc2ccccc12 | 8.4 | 0.45 | 1.77 µg/mL (≈ 2.44 µM) | 0.21 µg/mL (≈ 0.29 µM) | 4.3 | 3.91 µg/mL (≈ 5.39 µM) | 0.41 µg/mL (≈ 0.565 µM)
C=C[C@H]1CN2CC[C@H]1C[C@H]2[C@@H](O)c1cc(CC[C@@H](C)[C@H]2CC[C@H]3[C@@H]4CC[C@@H]5C[C@H](O)CC[C@]5(C)[C@H]4CC[C@]23C)nc2ccccc12 | 4.6 | 0.97 | 3.97 µg/mL (≈ 6.35 µM) | 0.86 µg/mL (≈ 1.38 µM) | 1.3 | 4.08 µg/mL (≈ 6.53 µM) | 3.01 µg/mL (≈ 4.82 µM)
C=C[C@H]1CN2CC[C@H]1C[C@H]2[C@@H](O)c1cc(CC[C@@H](C)[C@H]2CC[C@H]3[C@@H]4CC[C@@H]5C[C@H](O)CC[C@]5(C)[C@H]4CC[C@]23C)nc2ccc(OC)cc12 | 3.8 | 0.64 | 2.59 µg/mL (≈ 3.95 µM) | 0.68 µg/mL (≈ 1.04 µM) | 3.3 | 4.05 µg/mL (≈ 6.18 µM) | 0.79 µg/mL (≈ 1.21 µM)
C=C[C@H]1CN2CC[C@H]1C[C@H]2[C@H](O)c1cc(CC[C@@H](C)[C@H]2CC[C@H]3[C@@H]4[C@H](OC(C)=O)C[C@@H]5C[C@H](OC(C)=O)CC[C@]5(C)[C@H]4CC[C@]23C)nc2ccc(OC)cc12 | 5.6 | 1.1 | 3.92 µg/mL (≈ 5.19 µM) | 0.69 µg/mL (≈ 0.914 µM) | 3.2 | 3.49 µg/mL (≈ 4.62 µM) | 1.22 µg/mL (≈ 1.62 µM)
C=C[C@H]1CN2CC[C@H]1C[C@H]2[C@@H](O)c1cc(CC[C@@H](C)[C@H]2CC[C@H]3[C@@H]4[C@H](OC(C)=O)C[C@@H]5C[C@H](OC(C)=O)CC[C@]5(C)[C@H]4CC[C@]23C)nc2ccccc12 | 10.2 | 0.47 | 1.93 µg/mL (≈ 2.66 µM) | 0.19 µg/mL (≈ 0.262 µM) | 4.5 | 4.11 µg/mL (≈ 5.67 µM) | 0.43 µg/mL (≈ 0.593 µM)
C=C[C@H]1CN2CC[C@H]1C[C@H]2[C@H](O)c1cc(CC[C@@H](C)[C@H]2CC[C@H]3[C@@H]4CC[C@@H]5C[C@H](OC(C)=O)CC[C@]5(C)[C@H]4CC[C@]23C)nc2ccccc12 | 4.6 | 0.46 | 5.58 µg/mL (≈ 8.37 µM) | 1.21 µg/mL (≈ 1.81 µM) | 4.4 | 12.2 µg/mL (≈ 18.3 µM) | 1.27 µg/mL (≈ 1.9 µM)
C=C[C@H]1CN2CC[C@H]1C[C@H]2[C@@H](O)c1cc(CC[C@@H](C)[C@H]2CC[C@H]3[C@@H]4[C@H](O)C[C@@H]5C[C@H](O)CC[C@]5(C)[C@H]4CC[C@]23C)nc2ccc(OC)cc12 | 14 | 0.51 | 1.95 µg/mL (≈ 2.91 µM) | 0.14 µg/mL (≈ 0.209 µM) | 5.3 | 3.86 µg/mL (≈ 5.75 µM) | 0.37 µg/mL (≈ 0.551 µM)
C[C@@H]1[C@H](O)[C@@H](C)/C=C/C=C/C=C/C=C/C=C/C=C/C=C/[C@H](O[C@@H]2O[C@H](C)[C@@H](O)[C@H](N)[C@@H]2O)C[C@@H]2O[C@](O)(C[C@@H](O)C[C@@H](O)[C@H](O)CC[C@@H](O)C[C@@H](O)CC(=O)O[C@H]1C)C[C@H](O)[C@H]2C(=O)O [AMPHOTERICIN B] |  |  |  |  |  | 0.1 µg/mL (≈ 0.108 µM) | 
C=C[C@H]1CN2CC[C@H]1C[C@H]2[C@H](O)c1cc(CC[C@@H](C)[C@H]2CC[C@H]3[C@@H]4CC[C@@H]5C[C@H](OC(C)=O)CC[C@]5(C)[C@H]4CC[C@]23C)nc2ccc(OC)cc12 | 2.7 | 1.2 | 16.2 µg/mL (≈ 23.2 µM) | 6.07 µg/mL (≈ 8.71 µM) | 8 | 14 µg/mL (≈ 20 µM) | 2.03 µg/mL (≈ 2.91 µM)
C=C[C@H]1CN2CC[C@H]1C[C@H]2[C@H](O)c1ccnc2ccccc12 [CINCHONIDINE] | > 71 | 0.96 | > 20 µg/mL | 0.28 µg/mL (≈ 0.951 µM) |  | 5.74 µg/mL (≈ 19.5 µM) | 18.3 µg/mL (≈ 62.1 µM)
C=C[C@H]1CN2CC[C@H]1C[C@H]2[C@@H](O)c1cc(CC[C@@H](C)[C@H]2CC[C@H]3[C@@H]4[C@H](OC(C)=O)C[C@@H]5C[C@H](OC(C)=O)CC[C@]5(C)[C@H]4CC[C@]23C)nc2ccc(OC)cc12 | 8.1 | 0.75 | 3.1 µg/mL (≈ 4.11 µM) | 0.38 µg/mL (≈ 0.503 µM) | 7.1 | 4.15 µg/mL (≈ 5.5 µM) | 0.44 µg/mL (≈ 0.583 µM)
Cc1ccc(C(=O)Nc2ccc(S(=O)(=O)O)c3cc(S(=O)(=O)O)cc(S(=O)(=O)O)c23)cc1NC(=O)c1cccc(NC(=O)Nc2cccc(C(=O)Nc3cc(C(=O)Nc4ccc(S(=O)(=O)O)c5cc(S(=O)(=O)O)cc(S(=O)(=O)O)c45)ccc3C)c2)c1 [SURAMIN] |  |  |  |  |  |  | 0.11 µg/mL (≈ 0.0848 µM)
CC[C@@]1(O)C(=O)OCc2c1cc1n(c2=O)Cc2cc3ccccc3nc2-1 [CAMPTOTHECIN] |  |  | 0.4 µg/mL (≈ 1.15 µM) |  |  |  | 
C=C[C@H]1CN2CC[C@H]1C[C@@H]2[C@@H](O)c1ccnc2ccc(OC)cc12 [QUINIDINE] | 179 |  | 11.3 µg/mL (≈ 34.8 µM) | 0.06 µg/mL (≈ 0.185 µM) | 1.3 | > 20 µg/mL | 8.42 µg/mL (≈ 26 µM)
C=C[C@H]1CN2CC[C@H]1C[C@@H]2[C@@H](O)c1ccnc2ccccc12 [CINCHONINE] | > 222 |  | > 20 µg/mL | 0.09 µg/mL (≈ 0.306 µM) |  | > 20 µg/mL | > 20 µg/mL
C=C[C@H]1CN2CC[C@H]1C[C@H]2[C@@H](O)c1cc(CC[C@@H](C)[C@H]2CC[C@H]3[C@@H]4CC[C@@H]5C[C@H](OC(C)=O)CC[C@]5(C)[C@H]4CC[C@]23C)nc2ccccc12 | 3.1 | 0.58 | 7.02 µg/mL (≈ 10.5 µM) | 2.26 µg/mL (≈ 3.39 µM) | 5.6 | 12.1 µg/mL (≈ 18.1 µM) | 1.26 µg/mL (≈ 1.89 µM)
C=C[C@H]1CN2CC[C@H]1C[C@H]2[C@H](O)c1cc(CC[C@@H](C)[C@H]2CC[C@H]3[C@@H]4[C@H](O)C[C@@H]5C[C@H](O)CC[C@]5(C)[C@H]4CC[C@]23C)nc2ccccc12 | 7.5 | 0.5 | 1.71 µg/mL (≈ 2.67 µM) | 0.23 µg/mL (≈ 0.359 µM) | 4.3 | 3.45 µg/mL (≈ 5.38 µM) | 0.4 µg/mL (≈ 0.624 µM)
C=C[C@H]1CN2CC[C@H]1C[C@H]2[C@@H](O)c1cc(CC[C@@H](C)[C@H]2CC[C@H]3[C@@H]4CC[C@@H]5C[C@H](OC(C)=O)CC[C@]5(C)[C@H]4CC[C@]23C)nc2ccc(OC)cc12 | 9.7 | 0.57 | 7.79 µg/mL (≈ 11.2 µM) | 0.81 µg/mL (≈ 1.16 µM) | 2.6 | 13.7 µg/mL (≈ 19.6 µM) | 2.97 µg/mL (≈ 4.26 µM)
C=C[C@H]1CN2CC[C@H]1C[C@H]2[C@H](O)c1ccnc2ccc(OC)cc12 [QUININE] | 32 |  | 6.56 µg/mL (≈ 20.2 µM) | 0.2 µg/mL (≈ 0.616 µM) | 1 | > 20 µg/mL | 6.87 µg/mL (≈ 21.2 µM)
C=C[C@H]1CN2CC[C@H]1C[C@H]2[C@@H](O)c1cc(CC[C@@H](C)[C@H]2CC[C@H]3[C@@H]4[C@H](O)C[C@@H]5C[C@H](O)CC[C@]5(C)[C@H]4CC[C@]23C)nc2ccccc12 | 15.7 | 0.42 | 1.42 µg/mL (≈ 2.22 µM) | 0.09 µg/mL (≈ 0.14 µM) | 3.6 | 3.39 µg/mL (≈ 5.29 µM) | 0.39 µg/mL (≈ 0.608 µM)
C=C[C@H]1CN2CC[C@H]1C[C@H]2[C@H](O)c1cc(CC[C@@H](C)[C@H]2CC[C@H]3[C@@H]4[C@H](O)C[C@@H]5C[C@H](O)CC[C@]5(C)[C@H]4CC[C@]23C)nc2ccc(OC)cc12 | 15.5 | 0.98 | 4.57 µg/mL (≈ 6.81 µM) | 0.3 µg/mL (≈ 0.447 µM) | 11.1 | 4.67 µg/mL (≈ 6.96 µM) | 0.41 µg/mL (≈ 0.611 µM)
C=C[C@H]1CN2CC[C@H]1C[C@H]2[C@H](O)c1cc(CC[C@@H](C)[C@H]2CC[C@H]3[C@@H]4CC[C@@H]5C[C@H](O)CC[C@]5(C)[C@H]4CC[C@]23C)nc2ccc(OC)cc12 |  |  | > 20 µg/mL | 4.24 µg/mL (≈ 6.47 µM) |  | > 20 µg/mL | 3.53 µg/mL (≈ 5.39 µM)
